Source: patent publication US6506779B1, “Acetylene derivatives as anti-inflammatory/analgesic agents” (Pfizer Inc., priority 1999, dated 2003)

| melting point | SMILES |
| --- | --- |
| 170 to 172 °C | CS(=O)(=O)c1ccc(-n2nc(C(F)(F)F)cc2-c2ccc(C#Cc3ccccc3)cc2)cc1 [Example 15, 1-[4-(Methylsulfonyl)Phenyl]-5-[4-(Phenylethynyl)Phenyl]-3-Trifluoromethyl-1H-Pyrazole] |
| 96 to 98 °C | CCCCC#Cc1ccc(-c2cc(C(F)(F)F)nn2-c2ccc(S(C)(=O)=O)cc2)cc1 [Example 16, 5-[4-(1-Hexyn-1-yl)Phenyl]-1-[4-(Methylsulfonyl)Phenyl]-3-Trifluoromethyl-1H-Pyrazole] |
| 87 to 90 °C | CS(=O)(=O)c1ccc(-n2nc(C(F)(F)F)cc2-c2ccc(C#CCCCO)cc2)cc1 [Example 17, 5-[4-(5-Hydroxy-1-Pentyn-1-yl)Phenyl]-1-[4-(Methylsulfonyl)Phenyl]-3-Trifluoromethyl-1H-Pyrazole] |
